Data taken from paper PMC7966384, “In vivo and in vitro reconstitution of unique key steps in cystobactamid antibiotic biosynthesis” (Nature Communications, 2021).

Assays:
CysH∆AMDH = target: T1, CysH∆AMDH (Cystobacter sp. Cbv34, UniProt A0A0H4NUD7); assay: intact protein ESI-MS, loading onto T domain; type: biochemical; details: 1 mM ATP, 10 mM MgCl2, pH 7.5, room temperature; covalent (T domain thioester); 1 mM amino acid, 5 µM protein
T1 construct: E. coli BL21(DE3)

CysH = target: T2, CysH (Cystobacter sp. Cbv34, UniProt A0A0H4NUD7); assay: intact protein ESI-MS, loading onto T domain; type: biochemical; details: 1 mM ATP, 10 mM MgCl2, pH 7.5, room temperature; covalent (T domain thioester); 1 mM amino acid, 5 µM protein
T2 construct: full-length A-T module with 38 kDa AMDH domain inserted; E. coli BL21(DE3), pHisSUMOTEV, N-terminal 6xHis tag, TEV protease treated
T2 sequence (A0A0H4NUD7 entry or part of it): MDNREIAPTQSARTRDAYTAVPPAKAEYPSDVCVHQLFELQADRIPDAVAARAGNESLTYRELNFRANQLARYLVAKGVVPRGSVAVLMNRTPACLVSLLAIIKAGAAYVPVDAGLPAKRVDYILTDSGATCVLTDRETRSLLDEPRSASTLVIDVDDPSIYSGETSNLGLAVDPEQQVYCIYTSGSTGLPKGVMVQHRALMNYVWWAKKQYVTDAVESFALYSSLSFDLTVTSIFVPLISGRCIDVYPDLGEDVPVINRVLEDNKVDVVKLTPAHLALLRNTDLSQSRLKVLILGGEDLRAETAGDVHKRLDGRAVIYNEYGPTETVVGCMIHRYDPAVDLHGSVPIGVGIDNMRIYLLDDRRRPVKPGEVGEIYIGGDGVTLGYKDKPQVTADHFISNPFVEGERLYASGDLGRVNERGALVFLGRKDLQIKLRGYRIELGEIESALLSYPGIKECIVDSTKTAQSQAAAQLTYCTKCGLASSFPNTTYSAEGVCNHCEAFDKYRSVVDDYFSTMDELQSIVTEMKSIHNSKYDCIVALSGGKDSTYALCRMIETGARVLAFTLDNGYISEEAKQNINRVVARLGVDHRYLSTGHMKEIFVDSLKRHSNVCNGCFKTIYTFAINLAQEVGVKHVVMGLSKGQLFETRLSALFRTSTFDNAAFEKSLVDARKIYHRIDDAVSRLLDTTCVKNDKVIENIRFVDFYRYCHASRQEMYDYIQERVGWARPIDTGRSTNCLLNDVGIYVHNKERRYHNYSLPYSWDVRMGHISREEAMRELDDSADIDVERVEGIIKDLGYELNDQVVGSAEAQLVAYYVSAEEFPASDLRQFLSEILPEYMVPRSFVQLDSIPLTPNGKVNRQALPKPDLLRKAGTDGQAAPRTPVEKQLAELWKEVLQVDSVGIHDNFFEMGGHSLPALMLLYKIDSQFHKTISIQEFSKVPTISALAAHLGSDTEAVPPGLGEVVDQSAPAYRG

T1 sequence (A0A0H4NUD7 entry or part of it): as above

Row | SMILES | intact protein ESI-MS, loading onto T domain (CysH∆AMDH) | intact protein ESI-MS, loading onto T domain (CysH)
1 | NC(=O)C[C@H](N)C(=O)O [L-asparagine] | Incubation of CysH∆AMDH with L-asparagine only resulted in substrate loading | L-asparagine was favored as substrate by CysH
2 | NC(=O)[C@@H](N)CC(=O)O [L-isoasparagine] |  | we also observed loading of L-glutamine, β-cyano-L-alanine, and L-isoasparagine
